Assays:
Hex and Isl-1 expression = assay: In situ hybridization of Hex and Isl-1 in avian embryos after EtOH exposure with or without FA; assay type: in vivo, avian (chick); conditions: 30% EtOH; HH stage 4; 8 hour incubation
C57BL/6 mouse embryos [1] = assay: Morphometric parameters and resorptions of E15.5 mouse embryos with ethanol exposure and FA diet; assay type: in vivo
Description: The C57Bl/6 mouse strain (Jackson Laboratories) was used.

C57BL/6 mouse embryos [2] = conditions: in vivo
chick embryos = assay: Early embryonic chick culture: heart development (MF20) after HCy, Li or Wnt3A exposure, FA/inositol rescue; assay type: in vivo, chick (Gallus gallus)
Description: Pathogen-free White Leghorn chick (Gallus gallus; Charles River, Mass.) and quail (Coturnix coturnix japonica; Strickland Farms, Ga.) embryos were used to analyze the effects of HCy on early embryogenesis. The early processes of heart development are well conserved among vertebrates and the avian model allows for more precise timing of exposure in early embryos. The incubation methodology using agarose-albumin has been described previously (Darnell and Schoenwolf, 2000). Briefly, the experimental paradigm involved exposing specific early stages of chick embryos, at HH stages 4 to 7 (Hamburger and Hamilton, 1951), to different concentrations of HCy (L-homocysteine thiolactone hydrochloride, Sigma) made up in physiological saline. Final concentrations of HCy included 30 μM, 50 μM, 75 μM and 100 μM. The minimal teratogenic dose was determined empirically to be 50 μM. This fit within the concentration range of 30 μM to 300 μM used by others that induced heart defects at later stages of development (Boot et al., 2004). Control embryos were incubated using the vehicle, physiological saline, in the agarose-albumin medium. Control and experimental cultures were incubated on the agarose-albumin plates for either 8 or 24 hours.
Carrier-free, recombinant mouse Wnt3A was purchased from R&D Systems (Minneapolis, Minn.). Wnt3A concentrations were empirically tested to find those that would induce cardiac defects but maintain embryonic viability. Wnt3A was tested at concentrations of 2 ng, 10 ng, 20 ng, 50 ng and 100 ng per ml. Concentrations of 2 ng/ml and 10 ng/ml were both effective in inducing cardiac defects. Both Wnt3A concentrations were used in the FA rescue experiments, as described. For the FA rescue experiments, folate (folic acid, Sigma-Aldrich) was added at a concentration of 2 μg, 5 μg or 10 μg per ml. […] For the experiments using inositol (myo-inositol, Sigma) supplementation, a concentration of 50 mg/ml was used.
The main embryonic defects related to the timing of embryonic exposure; the regions that were primarily affected related to an anterior-to posterior (AP) wave of development along this embryonic axis. The exposure effects ranged from early effects (e.g. no cardiac tissue, heart development occurring anterior to neural tissue, cardiabifida) to later effects, such as wide hearts and left looping (Table 1). The cardiac phenotypes observed with early HCy exposure were similar, although not identical, to those obtained from previous studies of Li exposure on avian heart development (Manisastry et al., 2006). The Wnt/β-catenin modulated genes Hex and Isl1 in the chick embryo also were similarly repressed with HCy, as with Li in the chick cardiogenic region. […] Investigation of regulatory gene activity in chick embryos indicates Li, HCy and Wnt3A suppress Wnt-modulated genes Hex and Islet-1 in the heart fields.
To define the effective dose of Wnt3A needed to induce cardiac dysmorphogenesis, Wnt3A was tested at concentrations of 2 ng, 10 ng, 20 ng, 50 ng, and 100 ng per ml. The minimal effective doses of Wnt3A that induced cardiac and neural anomalies were 2 ng/ml and 10 ng/ml, respectively. Using these concentrations, the inventors analyzed whether FA supplementation of media at 10^3-fold higher concentrations, that is 2 μg/ml or 10 μg/ml, would provide protection against the augmentation of canonical Wnt3A signaling.

HTR-8/SVneo cells = assay: In vitro wound assay of human trophoblast cell migration; assay type: cell-based; conditions: HCy exposure experiments; scrape wound
Description: In previous studies by the inventors analyzing the effects of lithium and the metabolite homocysteine (HCy) on early heart development, the results were similar. Both factors inhibited Wnt/β-catenin-mediated gene expression during induction stages of cardiogenesis. […] Folate protects the embryo from these adverse effects (Han et al., 2009). It was also noted that normal placental development was adversely affected by Li and HCy. A human trophoblast cell line, HTR-8/SVneo cells, was used to determine whether Li or HCy affect the migration of these cells in vitro and whether FA or FA/myo-inositol would protect the cells from adverse effects of the two cardiac teratogens. HCy exposure experiments were conducted. […] The wound edges are depicted by a white line in B. In panel A, it can be seen that the wound area is smaller. Administration of a combination of FA/myo-inositol, FA alone or myo-inositol alone, enhanced the expression of NMHC-IIB and FN to facilitate cell migration.

[3] = tested on: Hex and Islet-1 (Isl1) gene expression; assay: In situ hybridization of Hex and Isl1 in avian heart fields after Li, HCy or Wnt3A with or without FA; assay type: in vivo, chick; conditions: 8 hours of exposure; HH stages 3+/4
Description: In situ hybridizations on control and experimentally manipulated chick embryos were carried out using digoxigenin-labeled riboprobes with alkaline phosphatase detection (Linask et al., 2001). Images of whole-mounted chick embryos were taken with a Nikon DS-L2 camera unit. Probes for chick Hex were provided by Parker Antin, University of Arizona and probes for chick Islet-1 (Isl1) were provided by Thomas Jessell, Columbia University, NY.
Chick embryos (HH stages 3+/4) were incubated on agarose albumin supplemented with HCy (50 μM). Instead of giving a single injection in ovo, embryos were exposed to HCy for 8 hours in order to define the effect on early cardiac gene expression. Another group of embryos were exposed to HCy for 24 hours at which time the effects on gene expression were determined. To analyze the effects during the looping stages, incubation was stopped after between 22 and 24 hours. After the 8-hour incubation, Li and HCy suppressed Hex and Isl1 expression in the cardiogenic crescent (FIG. 5).
The inventors next analyzed whether FA rescues the downregulation of Hex and Isl1. Chick embryos were exposed to Li, HCy or Wnt3A, as above, with and without 10 μg/ml of FA; the experiments were terminated after either an 8-hour or 24-hour exposure period, at which time in situ hybridizations for gene expression were performed. After 8 hours of exposure, Li, HCy and Wnt3A all suppressed Hex (FIGS. 9D, G, J) and Isl1 (FIGS. 10D, G, J) compared with the control embryonic expression patterns (FIG. 9A; FIG. 10A). […] Thus, FA supplementation suppressed the potentiation of the inhibitory Wnt signaling, allowing for normal induction of Hex and Isl1 gene expression.

[4] = 30% EtOH 2.9 g/Kg twice i.p. on E6.75
[5] = 30% EtOH 3.5 g/Kg once i.p. on E6.75
[6] = HH stage 3 +/4, HCy 50 μM, Li 50 μM, FA 10 μM, inositol 280 mM

CCO [EtOH, ethanol]
Hex and Isl-1 expression in the heart fields (Hex and Isl-1 expression): suppressed | Body Weight (C57BL/6 mouse embryos [1]; [4]): 0.37 g | CRL (C57BL/6 mouse embryos [1]; [4]): 12.63 min | Placenta Weight (C57BL/6 mouse embryos [1]; [4]): 0.10 g | Body Weight (C57BL/6 mouse embryos [1]; [5]): 0.35 g | CRL (C57BL/6 mouse embryos [1]; [5]): 11.40 min | Placenta Weight (C57BL/6 mouse embryos [1]; [5]): 0.09 g | embryos with cardiac valve anomalies (avian embryos; 25% and 30% EtOH, stage 4): 68% | embryos with normal heart development (avian embryos; 25% and 30% EtOH, stage 4, FA (10 mg/ml) concurrently, in vitro and in ovo): 32% | morphological defects (avian embryos; EtOH in vitro at HH stage 4): delayed growth and severe cardiac malformations | effects of 10% EtOH in ovo (avian embryos; quail eggs stage 4, microinjected into airspace): no adverse effects | teratogenic EtOH dose (avian embryos; stage 4 avian embryos): 25-30% | DAPI (C57BL/6 mouse embryos [2]): 1.73 | DVPI (C57BL/6 mouse embryos [2]): 1.21 | E/A Ratio (C57BL/6 mouse embryos [2]): 0.29 | HR (C57BL/6 mouse embryos [2]): 205 bpm | ICT % (C57BL/6 mouse embryos [2]): 10.09% | IRT % (C57BL/6 mouse embryos [2]): 14.93% | MPI (C57BL/6 mouse embryos [2]): 0.62 | OF (C57BL/6 mouse embryos [2]): 26.37 cm/s | RR (C57BL/6 mouse embryos [2]): 293 ms | UAPI (C57BL/6 mouse embryos [2]): 1.75 | abnormalities after one i.p. injection of 3.5 g/kg (C57BL/6 mouse embryos [2]; ip): did not produce any abnormalities | outcome after one i.p. injection of 4.5 g/kg (C57BL/6 mouse embryos [2]; ip): cardiac abnormalities, but the pregnant mouse appeared sickly

O[C@H]1[C@H](O)[C@@H](O)[C@H](O)[C@@H](O)[C@H]1O [Inositol, myo-inositol]
% Normal Hearts (chick embryos; [6]): 60% | Abnormal (number of embryos) (chick embryos; [6]): 2 | Normal (number of embryos) (chick embryos; [6]): 3 | % Normal Hearts (chick embryos; HH stage 3 +/4, HCy 50 μM, Li 50 μM, FA 10 μM, inositol 280 mM, listed as Inositol only): 60% | expression of NMHC-IIB and FN (HTR-8/SVneo cells): enhanced

Wnt3A
embryos with normal hearts / normal heart development (chick embryos; Wnt3A exposure at HH stages 3+/4, Wnt 2 ng, FA 10 μg): 18% | minimal effective dose that induced cardiac anomalies (chick embryos; in vivo): 2 ng/mL | minimal effective dose that induced neural anomalies (chick embryos; in vivo): 10 ng/mL | Hex and Isl1 expression in the cardiogenic crescent [3]: suppressed

From patent publication US9308210B2, “Method for modulating canonical Wnt pathway using folate and inositol” (University of South Florida, priority 2009, dated 2016)
